# What was measured:
# hair growth = assay: Inhibition of hair growth (hair mass, treated vs untreated site); format: in vivo, hamster
# [1] = Percent reduction in hair shaft cysteine (amino acid analysis of hamster flank organ hairs); format: in vivo; design: concentration or dose not given beside the values
# [2] = Formation of cysteine-mixed disulfide in vitro (incubation with cystine or cysteine, HPLC); conditions: pH 7.4, 37° C.
# [3] = Reduction of cystine (generation of cysteine on incubation with cystine, HPLC); conditions: 37 C, pH 7.4
# [4] = Formation of cysteine-mixed disulfide in hair shafts after topical treatment; format: in vivo, Golden Syrian hamsters; conditions: thirteen topical treatments over 18 days, flank organ
molecule,measurement,setting,value
5′-Deoxy-5′-methylthioadenosine,Hair Mass Percent Reduction,"hair growth; Dose 10%, Vehicle A, topical",57 ± 6%
same,Hair Mass Treated,"hair growth; Dose 10%, Vehicle A, topical",1.25 ± 0.17 mg
same,Percent reduction in hair shaft cysteine,[1]; hamster flank organ hairs,11%
"O=C(O)CCCCC1CCSS1 (racemic) [DL-α-Lipoic acid (reduced form), DL-α-Lipoic acid]",Hair Mass Percent Reduction,"hair growth; Dose 5%, Vehicle B, topical",16 ± 5%
same,Hair Mass Treated,"hair growth; Dose 5%, Vehicle B, topical",2.67 ± 0.26 mg
same,Hair Mass Percent Reduction,"hair growth; Dose 15%, Vehicle A, topical",56 ± 6%
same,Hair Mass Treated,"hair growth; Dose 15%, Vehicle A, topical",0.74 ± 0.09 mg
"O=S(=O)(O)CC(S)CS (stereo not shown) [2,3,-Dimercapto-1-propanesulfonic acid]",Hair Mass Percent Reduction,"hair growth; Dose 20%, Vehicle A, topical",79 ± 3%
same,Hair Mass Treated,"hair growth; Dose 20%, Vehicle A, topical",0.64 ± 0.08 mg
same,Percent reduction in hair shaft cysteine,[1]; hamster flank organ hairs,40%
same,Formation of Cysteine mixed disulfide in-vitro,[2],YES
same,Reduction of Cystine,[3],YES
"NCCS [2-Mercaptoethylamine (Cysteamine), 2-Mercaptoethylamine, reference compound]",Hair Mass Percent Reduction,"hair growth; Dose 20%, Vehicle A, topical",86 ± 3%
same,Hair Mass Treated,"hair growth; Dose 20%, Vehicle A, topical",0.30 ± 0.09 mg
same,Percent reduction in hair shaft cysteine,[1]; hamster flank organ hairs,50%
same,Formation of Cysteine mixed disulfide in-vitro,[2],YES
same,Formation of Cysteine mixed disulfide in hair shaft,[4],YES
same,Reduction of Cystine,[3],YES
"CCCCCCCCCCCCOC(=O)CCSCCC(=O)OCCCCCCCCCCCC [3,3′-Thiodipropionic acid dilauryl ester]",Hair Mass Percent Reduction,"hair growth; Dose 5%, Vehicle D, topical",30 ± 7%
same,Hair Mass Treated,"hair growth; Dose 5%, Vehicle D, topical",1.70 ± 0.21 mg
same,Hair Mass Percent Reduction,"hair growth; Dose 20%, Vehicle D, topical",50 ± 4%
same,Hair Mass Treated,"hair growth; Dose 20%, Vehicle D, topical",1.07 ± 0.10 mg
"O=C(O)CCSCCC(=O)O [3,3′-Thiodipropionic acid]",Hair Mass Percent Reduction,"hair growth; Dose 20%, Vehicle A, topical",73 ± 4%
same,Hair Mass Treated,"hair growth; Dose 20%, Vehicle A, topical",0.76 ± 0.12 mg
CSCCCN [3-(Methylthio)-propylamine],Hair Mass Percent Reduction,"hair growth; Dose 2%, Vehicle A, topical",22 ± 13%
same,Hair Mass Treated,"hair growth; Dose 2%, Vehicle A, topical",0.97 ± 0.13 mg
O=C(O)CCCSSCCCC(=O)O [3-Carboxypropyl disulfide],Hair Mass Percent Reduction,"hair growth; Dose 15%, Vehicle A, topical",74 ± 4%
same,Hair Mass Treated,"hair growth; Dose 15%, Vehicle A, topical",0.70 ± 0.14 mg
C=CCSCC=C [Allyl sulfide],Hair Mass Percent Reduction,"hair growth; Dose 20%, Vehicle B, topical",17 ± 10%
same,Hair Mass Treated,"hair growth; Dose 20%, Vehicle B, topical",1.74 ± 0.16 mg
"C[C@H](CS)C(=O)N1CCC[C@H]1C(=O)O [Captopril, reference compound]",Hair Mass Percent Reduction,"hair growth; Dose 10%, Vehicle A, topical",57 ± 5%
same,Hair Mass Treated,"hair growth; Dose 10%, Vehicle A, topical",1.49 ± 0.20 mg
same,Percent reduction in hair shaft cysteine,[1]; hamster flank organ hairs,26%
same,Formation of Cysteine mixed disulfide in-vitro,[2],YES
same,Reduction of Cystine,[3],YES
N[C@@H](CS)C(=O)NCC(=O)O [Cystenyl-glycine],Hair Mass Percent Reduction,"hair growth; Dose 15%, Vehicle A, topical",55 ± 8%
same,Hair Mass Treated,"hair growth; Dose 15%, Vehicle A, topical",0.93 ± 0.18 mg
same,Reduction of Cystine,[3],YES
N[C@H](CS)C(=O)O [D-Cysteine],Hair Mass Percent Reduction,"hair growth; Dose 10%, Vehicle A, topical",60 ± 3%
same,Hair Mass Treated,"hair growth; Dose 10%, Vehicle A, topical",1.20 ± 0.17 mg
CC(C)(SSC(C)(C)[C@@H](N)C(=O)O)[C@@H](N)C(=O)O [D-Penicillamine disulfide],Hair Mass Percent Reduction,"hair growth; Dose 15%, Vehicle A, topical",55 ± 4%
same,Hair Mass Treated,"hair growth; Dose 15%, Vehicle A, topical",1.09 ± 0.23 mg
"CC(C)(S)[C@@H](N)C(=O)O [D-Penicillamine, reference compound]",Hair Mass Percent Reduction,"hair growth; Dose 15%, Vehicle A, topical",65 ± 5%
same,Hair Mass Treated,"hair growth; Dose 15%, Vehicle A, topical",0.57 ± 0.07 mg
same,Percent reduction in hair shaft cysteine,[1]; hamster flank organ hairs,50%
same,Formation of Cysteine mixed disulfide in-vitro,[2],YES
same,Formation of Cysteine mixed disulfide in hair shaft,[4],YES
CCN(CC)C(=S)S [Diethyldithiocarbamic acid],Hair Mass Percent Reduction,"hair growth; Dose 15%, Vehicle A, topical",68 ± 7%
same,Hair Mass Treated,"hair growth; Dose 15%, Vehicle A, topical",0.65 ± 0.09 mg
same,Percent reduction in hair shaft cysteine,[1]; hamster flank organ hairs,18%
O=S(=O)(O)CCO [Isethionic acid],Hair Mass Percent Reduction,"hair growth; Dose 15%, Vehicle A, topical",50 ± 7%
same,Hair Mass Treated,"hair growth; Dose 15%, Vehicle A, topical",1.45 ± 0.22 mg
CCOC(=O)[C@@H](N)CS [L-Cysteine ethyl ester],Hair Mass Percent Reduction,"hair growth; Dose 20%, Vehicle A, topical",82 ± 3%
same,Hair Mass Treated,"hair growth; Dose 20%, Vehicle A, topical",0.49 ± 0.08 mg
COC(=O)[C@@H](N)CS [L-Cysteine methyl ester],Hair Mass Percent Reduction,"hair growth; Dose 20%, Vehicle A, topical",86 ± 3%
same,Hair Mass Treated,"hair growth; Dose 20%, Vehicle A, topical",0.28 ± 0.07 mg
"CC(=O)N[C@@H](CS)C(=O)O [N-Acetyl-L-Cysteine, reference compound]",Hair Mass Percent Reduction,"hair growth; Dose 15%, Vehicle A, topical",80 ± 4%
same,Hair Mass Treated,"hair growth; Dose 15%, Vehicle A, topical",0.39 ± 0.07 mg
NCCSC[C@H](N)C(=O)O [S-2-Aminoethyl-L-cysteine],Hair Mass Percent Reduction,"hair growth; Dose 20%, Vehicle A, topical",50 ± 11%
same,Hair Mass Treated,"hair growth; Dose 20%, Vehicle A, topical",0.99 ± 0.20 mg
"O=C(O)c1cc(/N=N/c2ccc(S(=O)(=O)Nc3ccccn3)cc2)ccc1O [Sulfasalazine, reference compound]",Hair Mass Percent Reduction,"hair growth; Dose 20%, Vehicle C, topical",61 ± 6%
same,Hair Mass Treated,"hair growth; Dose 20%, Vehicle C, topical",0.88 ± 0.14 mg
same,Percent reduction in hair shaft cysteine,[1]; hamster flank organ hairs,(−2%)
O=C(O)c1ccccc1S [Thiosalicylic acid],Hair Mass Percent Reduction,"hair growth; hamster, in vivo",89 ± 2%
same,Hair Mass Treated,"hair growth; hamster, in vivo",0.18 ± 0.04 mg
same,Percent reduction in hair shaft cysteine,"[1]; hamster, in vivo",14%
"O=C(O)[C@@H](S)[C@@H](S)C(=O)O [meso-2,3,-Dimercaptosuccinic acid]",Hair Mass Percent Reduction,"hair growth; Dose 20%, Vehicle C, topical",50 ± 5%
same,Hair Mass Treated,"hair growth; Dose 20%, Vehicle C, topical",1.08 ± 0.16 mg
same,Percent reduction in hair shaft cysteine,[1]; hamster flank organ hairs,22%
same,Reduction of Cystine,[3],YES

# Source: US6743419B1, “Method of reducing hair growth employing sulfhydryl active compounds” (The Gillette Company, priority 1992, dated 2004)
